These compounds were tested on AMPK (assay: AMPK activation assay (enzyme-linked immunosorbent assay)).
Type: cell-based
How it was run: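 Read-out: immunodetected kinase activation after compound exposure, run with commercial kit reagents.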
In the case of `N#Cc1ccc(CN2CCC(NC(=O)c3ccc(C(=O)N4CCC(Oc5ccc(SC(F)(F)F)cc5)CC4)nn3)CC2)cc1` [Compound 436, N-(1-(4-cyanobenzyl)piperidin-4-yl)-6-(4-(4-(trifluoromethylthio)phenoxy)piperidine-1-carbonyl)pyridazine-3-carboxamide], the EC50 is reported as < 500 nM. In the case of `COc1ccc(CN2CCC(N(C)C(=O)c3ccc(C(=O)N4CCC(C(=O)c5ccc(OC)cc5)CC4)nc3)CC2)cc1` [Compound 484, 6-(4-(4-methoxybenzoyl)piperidine-1-carbonyl)-N-(1-(4-methoxybenzyl)piperidin-4-yl)-N-methylnicotinamide], the EC50 is reported as < 500 nM. With `CC(=O)c1ccc(OC2CCN(C(=O)c3ccc(C(=O)NC4CCN(Cc5ccc(C#N)cc5)CC4)cn3)CC2)cc1` [Compound 390, 6-(4-(4-acetylphenoxy)piperidine-1-carbonyl)-N-(1-(4-cyanobenzyl)piperidin-4-yl)nicotinamide] the EC50 was < 500 nM. `N#Cc1ccc(CN2CCC(NC(=O)c3ccc(C(=O)N4CCC(C(=O)c5ccc(F)cc5F)CC4)cn3)CC2)cc1` [Compound 271, N-(1-(4-cyanobenzyl)piperidin-4-yl)-5-(4-(2,4-difluorobenzoyl)piperidine-1-carbonyl)picolinamide] was tested, and the EC50 was < 500 nM. For `CC(=O)c1ccc(OC2CCN(C(=O)c3ccc(C(=O)Nc4ccc(Oc5ccc(F)cc5)nc4)cn3)CC2)cc1` [Compound 395, 6-(4-(4-acetylphenoxy)piperidine-1-carbonyl)-N-(6-(4-fluorophenoxy)pyridin-3-yl)nicotinamide], the EC50 was < 500 nM. `N#Cc1ccc(CN2CCC(NC(=O)c3ncc(C(=O)N4CCN(Cc5ccc(F)cc5)CC4)cc3C#CCNC(=O)COCCOCCOCCOCCNC(=O)CCCC[C@@H]3SC[C@@H]4NC(=O)N[C@@H]43)CC2)cc1` [Compound 159, N-(1-(4-cyanobenzyl)piperidin-4-yl)-3-(5,20-dioxo-24-((3aS,4S,6aR)-2-oxohexahydro-1H-thieno[3,4-d]imidazol-4-yl)-7,10,13,16-tetraoxa-4,19-diazatetracos-1-ynyl)-5-(4-(4-fluorobenzyl)piperazine-1-carbonyl)picolinamide] was tested, and the EC50 was 1000 to 5000 nM. `COc1ccc(CN2CCC(NC(=O)c3ccc(C(=O)N4CCN(Cc5ccc(F)cc5)CC4)nc3)CC2)cc1` [Compound 327, 6-(4-(4-fluorobenzyl)piperazine-1-carbonyl)-N-(1-(4-methoxybenzyl)piperidin-4-yl) nicotinamide] was tested, and the EC50 was < 500 nM. For `N#Cc1ccc(CN2CCC(NC(=O)c3ccc(C(=O)N4CCN(S(=O)(=O)c5ccc(F)cc5)CC4)cn3)CC2)cc1` [Compound 78, N-(1-(4-cyanobenzyl)piperidin-4-yl)-5-(4-(4-fluorophenylsulfonyl)piperazine-1-carbonyl)picolinamide], the EC50 was < 500 nM. Compound `COc1ccc(CN2CCC(NC(=O)c3ccc(C(=O)N4CCC(S(=O)(=O)c5ccc(F)cc5)CC4)nc3)CC2)cc1` [Compound 474, 6-(4-(4-fluorophenylsulfonyl)piperidine-1-carbonyl)-N-(1-(4-methoxybenzyl)piperidin-4-yl)nicotinamide] has an EC50 of 1000 to 5000 nM. With `COc1ccc(C(=O)C2CCN(C(=O)c3ccc(C(=O)Nc4ccc(Oc5ccc(C(=O)N(C)C)cc5)nc4)cn3)CC2)cc1` [Compound 480, N-(6-(4-(dimethylcarbamoyl)phenoxy)pyridin-3-yl)-6-(4-(4-methoxybenzoyl)piperidine-1-carbonyl)nicotinamide] the EC50 was < 500 nM. `CC(=O)c1ccc(OC2CCN(C(=O)c3ccc(C(=O)NC4CCC(Oc5ccc(C#N)cc5)CC4)cn3)CC2)cc1` (centres unmarked) [Compound 402, 6-(4-(4-acetylphenoxy)piperidine-1-carbonyl)-N-(4-(4-cyanophenoxy)cyclohexyl)nicotinamide] was tested, and the EC50 was < 500 nM. `N#Cc1ccc(CN2CCC(NC(=O)c3ccc(C(=O)N4CCN(Cc5ccc(F)cc5)CC4)nc3)CC2)cc1` [Compound 1] was tested, and the EC50 was < 500 nM. For `O=C(NC1CCN(Cc2ccc(N3CCCC3)cc2)CC1)c1ccc(C(=O)N2CCC(Oc3ccc(S(=O)(=O)C4CC4)cc3)CC2)nc1` [Compound 248, 6-(4-(4-(cyclopropylsulfonyl)phenoxy)piperidine-1-carbonyl)-N-(1-(4-(pyrrolidin-1-yl)benzyl)piperidin-4-yl)nicotinamide], the EC50 was < 500 nM. With `COc1ccc(OC2CCCN(C(=O)c3ccc(C(=O)NC4CCN(Cc5ccc(C#N)cc5)CC4)nc3)C2)cc1` (centres unmarked) [Compound 274, N-(1-(4-cyanobenzyl)piperidin-4-yl)-5-(3-(4-methoxyphenoxy)piperidine-1-carbonyl)picolinamide] the EC50 was > 10000 nM. `CS(=O)(=O)c1ccc(OC2CCN(C(=O)c3ccc(C(=O)Nc4ccc(Oc5ccc(F)cc5)nc4)cn3)CC2)cc1` [Compound 235, N-(6-(4-fluorophenoxy)pyridin-3-yl)-6-(4-(4-(methylsulfonyl)phenoxy)piperidine-1-carbonyl)nicotinamide] was tested, and the EC50 was < 500 nM. In the case of `N#Cc1ccc(OC2CCN(C(=O)c3ccc(C(=O)NC4CCN(Cc5nccs5)CC4)cn3)CC2)cc1` [Compound 356, 6-(4-(4-cyanophenoxy)piperidine-1-carbonyl)-N-(1-(thiazol-2-ylmethyl)piperidin-4-yl)nicotinamide], the EC50 is reported as < 500 nM. `N#Cc1ccc(CN2CCC(NC(=O)c3ccc(C(=O)N4CCN(C(=O)c5ccc(F)cc5)CC4)cn3)CC2)cc1` [Compound 76, N-(1-(4-cyanobenzyl)piperidin-4-yl)-5-(4-(4-fluorobenzoyl)piperazine-1-carbonyl)picolinamide] was tested, and the EC50 was < 500 nM. `N#Cc1ccc(CN2CCC(NC(=O)c3ccc(C(=O)N4CCC(Oc5ccc(C(F)(F)F)cc5)CC4)cn3)CC2)cc1` [Compound 157, N-(1-(4-cyanobenzyl)piperidin-4-yl)-5-(4-(4-(trifluoromethyl)phenoxy)piperidine-1-carbonyl)picolinamide] was tested, and the EC50 was < 500 nM. In the case of `CC(=O)c1ccc(OC2CCN(C(=O)c3ccc(C(=O)Nc4ccc(Oc5ccc(F)cc5)nc4)nc3)CC2)cc1` [Compound 359, 5-(4-(4-acetylphenoxy)piperidine-1-carbonyl)-N-(6-(4-fluorophenoxy)pyridin-3-yl)picolinamide], the EC50 is reported as < 500 nM. For `COc1ccc(C(=O)C2CCN(C(=O)c3ccc(C(=O)NC4CCN(Cc5cccc(OC)c5)CC4)cn3)CC2)cc1` [Compound 425, 6-(4-(4-methoxybenzoyl)piperidine-1-carbonyl)-N-(1-(3-methoxybenzyl)piperidin-4-yl) nicotinamide], the EC50 was < 500 nM. In the case of `COc1ccc(Oc2ccc(NC(=O)c3ccc(C(=O)N4CCN(Cc5ccc(F)cc5)CC4)cn3)cc2)cc1` [Compound 54, 5-(4-(4-fluorobenzyl)piperazine-1-carbonyl)-N-(4-(4-methoxyphenoxy)phenyl)picolinamide], the EC50 is reported as < 500 nM. `COc1ccc(C(=O)C2CCN(C(=O)c3ccc(C(=O)Nc4ccc(Oc5ccc(C#N)cc5)nc4C)cn3)CC2)cc1` [Compound 478, N-(6-(4-cyanophenoxy)-2-methylpyridin-3-yl)-6-(4-(4-methoxybenzoyl)piperidine-1-carbonyl)nicotinamide] was tested, and the EC50 was < 500 nM. Work on `N#Cc1ccc(CN2CCC(NC(=O)c3ccc(C(=O)N4CCC(Cc5ccc(C(N)=O)cc5)CC4)cn3)CC2)cc1` [Compound 141, 5-(4-(4-carbamoylbenzyl)piperidine-1-carbonyl)-N-(1-(4-cyanobenzyl)piperidin-4-yl)picolinamide] yielded an EC50 of 500 to 1000 nM. For `N#Cc1ccc(CN2CCC(NC(=O)c3ncc(C(=O)N4CCN(Cc5ccc(F)cc5)CC4)cc3CCCNC(=O)CCOCCOCCOCCOCCNC(=O)CCCC[C@@H]3SC[C@@H]4NC(=O)N[C@@H]43)CC2)cc1` [Compound 291, N-(1-(4-cyanobenzyl)piperidin-4-yl)-3-(5,21-dioxo-25-((3aS,4S,6aR)-2-oxohexahydro-1H-thieno[3,4-d]imidazol-4-yl)-8,11,14,17-tetraoxa-4,20-diazapentacosyl)-5-(4-(4-fluorobenzyl)piperazine-1-carbonyl)picolinamide], the EC50 was < 500 nM. `COc1ccc(C(=O)C2CCN(C(=O)c3ccc(C(=O)Nc4ccc(Oc5ccc(C(C)=O)cc5)nc4)cn3)CC2)cc1` [Compound 462, N-(6-(4-acetylphenoxy)pyridin-3-yl)-6-(4-(4-methoxybenzoyl)piperidine-1-carbonyl)nicotinamide] was tested, and the EC50 was < 500 nM. `O=C(NC1CCN(Cc2cc(F)cc(F)c2)CC1)c1ccc(C(=O)N2CC(OCc3ccc(F)cc3)C2)cn1` [Compound 308, N-(1-(3,5-difluorobenzyl)piperidin-4-yl)-5-(3-(4-fluorobenzyloxy)azetidine-1-carbonyl)picolinamide] was tested, and the EC50 was < 500 nM. In the case of `COc1ccc(C(=O)C2CCN(C(=O)c3cnc(C(=O)Nc4ccc(Oc5ccc(F)cc5)nc4)cn3)CC2)cc1` [Compound 204, N-(6-(4-fluorophenoxy)pyridin-3-yl)-5-(4-(4-methoxybenzoyl)piperidine-1-carbonyl)pyrazine-2-carboxamide], the EC50 is reported as < 500 nM. Compound `O=C(N[C@@H]1CCNC[C@@H]1F)c1ccc(C(=O)N2CCN(Cc3ccc(F)cc3)CC2)cn1` (relative stereo) [Compound 102, 5-(4-(4-fluorobenzyl)piperazine-1-carbonyl)-N-(cis-3-fluoropiperidin-4-yl)picolinamide] has an EC50 of 5000 to 10000 nM. `O=C(N[C@H]1CC[C@@H](Oc2ccc(F)cc2)CC1)c1ccc(C(=O)N2CCC(Oc3ccc(F)cc3)CC2)cn1` [Compound 312, N-((cis)-4-(4-fluorophenoxy)cyclohexyl)-5-(4-(4-fluorophenoxy)piperidine-1-carbonyl)picolinamide] was tested, and the EC50 was < 500 nM. `O=C(Nc1ccc(Oc2ccc(F)cc2)nc1)c1cnc(C(=O)N2CCC(C(=O)c3ccc(F)cc3F)CC2)cn1` [Compound 206, 5-(4-(2,4-difluorobenzoyl)piperidine-1-carbonyl)-N-(6-(4-fluorophenoxy)pyridin-3-yl)pyrazine-2-carboxamide] was tested, and the EC50 was < 500 nM. With `COc1ccc(OC2CCN(C(=O)c3ccc(C(=O)NC4CCN(Cc5ccc(F)cc5)CC4)nc3)CC2)cc1` [Compound 183, N-(1-(4-fluorobenzyl)piperidin-4-yl)-5-(4-(4-methoxyphenoxy)piperidine-1-carbonyl)picolinamide] the EC50 was < 500 nM. In the case of `N#Cc1ccc(Oc2ccc(NC(=O)c3ccc(C(=O)N4CCN(Cc5ccc(F)cc5)CC4)cn3)cc2)cc1` [Compound 59, N-(4-(4-cyanophenoxy)phenyl)-5-(4-(4-fluorobenzyl)piperazine-1-carbonyl)picolinamide], the EC50 is reported as < 500 nM.

Source: patent US20150087673A1, “METHODS FOR USING AND BIOMARKERS FOR AMPK-ACTIVATING COMPOUNDS” (RIGEL PHARMACEUTICALS, INC., priority 2013, published 2015)
